This is an account of results in patent US6605635B1, “N-substituted benzyl or phenyl aromatic sulfamides compounds and the use thereof” (Shanghai Institute of Materia Medica Chinese Academy of …, priority 1999, dated 2003).

As usually defined, the ED50 is the dose that gives a 50% effect, or the effect in half of the subjects. The low end stands for greater potency, the high end for weaker potency.

Series [1] relates to rat aconitine-induced arrhythmia. The format is in vivo, rats. As to conditions: hydrochloride salts; for Prophylactic inde: ratio LD50:ED50, rats; for Therapeutic ind: ratio LD50:ED, rats.
Series [2] concerns acute myocardial ischemia induced arrhythmia. Description: acute myocardial ischemia induced arrhythmia model (coronary artery ligation) in anesthetized rats. The format is in vivo. The text has this:
1. An acute myocardial ischemia induced arrhythmia model was obtained by conducting chest opening to expose the heart and […] of the anterior descending branch of the coronary artery in anesthetized rats (“Methods in Pharmacological Experiments”, Second Edition, p. 1022, People's Medical Publishing House, Beijing, 1991).

In series [3] the test system is beiwutine induced rat arrhythmia. In words: beiwutine induced rat arrhythmia model. Type of series: in vivo.
The test system of series [4] is ouabain induced guinea pig arrhythmia. In words: ouabain induced guinea pig arrhythmia model. Type of series: in vivo.
The subject of the next series is arrhythmia patients. As to conditions: cited from earlier work.

Regarding `O=S(=O)(Nc1cc(CN2CCCCC2)c(O)c(CN2CCCCC2)c1)c1cccc2ccccc12` [Compound B-87836, N-[3,5-bis(1-Piperidinomethyl)-4-hydroxy]phenyl-1-naphthalenesulfonamide], in series [1], the Prophylactic inde worked out at 33.5 and the Therapeutic ind is 9.7.
For `Oc1c(CN2CCCC2)cc(Nc2ncnc3ccccc23)cc1CN1CCCC1` [changrolin], the “inhibition of the incidence of ventrical premature beats” value in series [2] was determined as 50%. The same compound yielded an ED50 in series [3] of 3 mg/kg. Further, the “amount of ouabain used for inducing ventrical premature beats, ventricular tachycardia and ventricular fibrillation” value in series [4] is on record as “significantly increase”. For the same compound, the ventricular premature beats result in the series on arrhythmia patients (2-3 days after oral administration, patients suffering from arrhythmia) was “disappear”. For the same compound, the “ventricular premature beats and ventricular tachycardia” value with arrhythmia patients (i.v. injection or instillation, patients) was “significant reduction or even disappearence”. For the same compound, the skin side effect result in the series with arrhythmia patients (oral administration for over one month, patients, retrogresses after ceasing administration) is “reversible pigmentation on the skin”.
As to “N-[3,5-bis(1 -Pyrrolidinomethyl)-4-hydroxyl]benzyl-4-chlorobenzenesulfonamide [Compound B-87829]”, in series [1], the Prophylactic inde is on record as 55 and the Therapeutic ind was found to be 8.6.
Turning to “N-[3,5-bis(1-Pyrrolidinomethyl)-4-hydroxy]phenyl-4-chlorobenzenesulfonamide [Compound B-86810]”, the Prophylactic inde in series [1] was determined as 5.3.
Consider “N-[3,5-bis(1-Pyrrolidinomethyl)-4-hydroxy]phenyl-N-ethyl-4-toluenesulfonamide [Compound B-86809]”, for which, in series [1], the Prophylactic inde worked out at 1.1 and the Therapeutic ind came to 4.0.
As for “N-[3,5-bis(1-Pyrrolidinomethyl)-4-hydroxy]phenyl-N-methyl-4-acetamidobenzenesulfonamide [Compound B-87827]”, in series [1], the Prophylactic inde is 3.0 and the Therapeutic ind was determined as 2.
